ChEMBL document CHEMBL5465560, “Selectivity Literature for EUbOPEN Chemogenomic Library” (2024)

How the values were obtained:
[1] = target: T1, Serine/threonine-protein kinase D2 (Homo sapiens) (UniProt Q9BZL6); assay: Selectivity interaction (KinomeScan (DiscoverX)) EUB0001049a PRKD2; settings: at 1 µM
T1 sequence (whole entry): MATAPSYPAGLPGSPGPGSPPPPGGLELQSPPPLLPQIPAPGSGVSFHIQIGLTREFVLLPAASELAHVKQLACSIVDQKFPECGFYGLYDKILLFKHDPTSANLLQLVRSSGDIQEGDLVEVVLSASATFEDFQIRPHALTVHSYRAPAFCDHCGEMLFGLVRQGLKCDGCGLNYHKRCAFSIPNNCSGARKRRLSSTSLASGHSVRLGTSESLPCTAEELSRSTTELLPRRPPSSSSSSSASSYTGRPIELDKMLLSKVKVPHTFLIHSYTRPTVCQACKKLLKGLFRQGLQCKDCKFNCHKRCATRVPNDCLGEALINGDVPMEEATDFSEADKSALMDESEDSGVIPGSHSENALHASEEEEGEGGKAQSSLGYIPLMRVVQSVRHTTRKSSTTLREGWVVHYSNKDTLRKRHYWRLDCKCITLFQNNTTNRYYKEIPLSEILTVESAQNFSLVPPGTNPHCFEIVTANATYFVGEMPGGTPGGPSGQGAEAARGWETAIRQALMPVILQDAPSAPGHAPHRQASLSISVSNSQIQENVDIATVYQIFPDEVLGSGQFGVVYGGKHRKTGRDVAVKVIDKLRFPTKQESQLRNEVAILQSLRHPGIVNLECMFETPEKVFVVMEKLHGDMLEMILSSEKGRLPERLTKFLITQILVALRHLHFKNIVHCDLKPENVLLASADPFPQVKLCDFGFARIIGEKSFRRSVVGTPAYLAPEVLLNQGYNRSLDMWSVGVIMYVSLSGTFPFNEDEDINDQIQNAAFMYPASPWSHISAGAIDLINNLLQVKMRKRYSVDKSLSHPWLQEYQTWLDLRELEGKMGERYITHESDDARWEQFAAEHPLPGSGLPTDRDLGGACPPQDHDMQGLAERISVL

[2] = target: T2, MAP kinase-activated protein kinase 5 (Homo sapiens) (UniProt Q8IW41); assay: Selectivity interaction (KinaseProfiler screening (Millipore)) EUB0000601a MAPKAPK5; settings: at 3 µM
T2 sequence (whole entry): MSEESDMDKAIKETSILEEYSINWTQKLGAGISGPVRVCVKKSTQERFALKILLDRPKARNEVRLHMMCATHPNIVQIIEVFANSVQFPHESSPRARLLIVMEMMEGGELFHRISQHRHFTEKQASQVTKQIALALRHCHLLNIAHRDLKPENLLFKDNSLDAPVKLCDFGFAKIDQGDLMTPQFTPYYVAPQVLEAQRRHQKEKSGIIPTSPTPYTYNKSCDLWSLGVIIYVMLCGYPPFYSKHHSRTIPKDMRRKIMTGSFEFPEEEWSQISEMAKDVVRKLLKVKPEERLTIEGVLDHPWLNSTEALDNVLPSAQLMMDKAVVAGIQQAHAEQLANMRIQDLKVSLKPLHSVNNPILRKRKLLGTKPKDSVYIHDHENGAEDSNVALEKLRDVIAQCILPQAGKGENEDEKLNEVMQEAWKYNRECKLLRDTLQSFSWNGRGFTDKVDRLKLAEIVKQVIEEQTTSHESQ

[3] = target: MAP kinase-activated protein kinase 2 (Homo sapiens, UniProt P49137); assay: Selectivity interaction (KinomeScan (DiscoverX)) EUB0000229b MAPKAPK2; settings: at 10 µM
[4] = target: Glycogen synthase kinase-3 alpha (Homo sapiens, UniProt P49840); assay: Selectivity interaction (ActivX KiNativ screen (kinase selectivity in THP-1 cell lysates)) EUB0000639a GSK3A; format: subcellular; settings: lysate
[5] = target: Mitogen-activated protein kinase kinase kinase kinase 5 (Homo sapiens) (UniProt Q9Y4K4); settings: at 10 µM
[6] = target: T3, Uncharacterized serine/threonine-protein kinase SBK3 (Homo sapiens) (UniProt P0C264); assay: Selectivity interaction (KinomeScan (DiscoverX)) EUB0000092b SBK3; settings: at 10 µM
T3 sequence (whole entry): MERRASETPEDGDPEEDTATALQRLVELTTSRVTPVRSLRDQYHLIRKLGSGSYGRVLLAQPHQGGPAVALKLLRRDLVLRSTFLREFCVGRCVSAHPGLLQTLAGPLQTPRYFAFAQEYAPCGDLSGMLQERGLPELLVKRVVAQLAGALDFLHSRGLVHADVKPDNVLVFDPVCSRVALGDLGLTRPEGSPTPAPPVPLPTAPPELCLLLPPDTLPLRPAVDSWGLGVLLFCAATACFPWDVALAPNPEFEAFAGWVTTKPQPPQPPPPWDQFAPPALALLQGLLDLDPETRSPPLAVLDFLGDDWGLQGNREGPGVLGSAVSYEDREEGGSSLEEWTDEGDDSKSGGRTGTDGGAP

[7] = system: Epidermal growth factor receptor (Homo sapiens), P00533 [L858R]; assay: (§1) Selectivity interaction (KinomeScan (DiscoverX)) EUB0000655a EGFR; settings: at 10 µM
[8] = system: Epidermal growth factor receptor (Homo sapiens), P00533 [L861Q]; assay: as §1; settings: at 10 µM
[9] = system: Epidermal growth factor receptor (Homo sapiens), P00533 [UNDEFINED MUTATION]; assay: as §1; settings: at 10 µM
[10] = system: Epidermal growth factor receptor (Homo sapiens), P00533 [UNDEFINED MUTATION]; assay: as §1; settings: at 10 µM; remark: listed apart in the source
[11] = target: Insulin receptor-related protein (Homo sapiens) (UniProt P14616); assay: Selectivity interaction (KinomeScan (DiscoverX)) EUB0000695a INSRR; settings: at 100 nM
[12] = target: T4, Megakaryocyte-associated tyrosine-protein kinase (Homo sapiens) (UniProt P42679); assay: Selectivity interaction (SelectScreen profiling (Invitrogen)) EUB0000607a MATK; settings: at 2 µM
T4 sequence (whole entry): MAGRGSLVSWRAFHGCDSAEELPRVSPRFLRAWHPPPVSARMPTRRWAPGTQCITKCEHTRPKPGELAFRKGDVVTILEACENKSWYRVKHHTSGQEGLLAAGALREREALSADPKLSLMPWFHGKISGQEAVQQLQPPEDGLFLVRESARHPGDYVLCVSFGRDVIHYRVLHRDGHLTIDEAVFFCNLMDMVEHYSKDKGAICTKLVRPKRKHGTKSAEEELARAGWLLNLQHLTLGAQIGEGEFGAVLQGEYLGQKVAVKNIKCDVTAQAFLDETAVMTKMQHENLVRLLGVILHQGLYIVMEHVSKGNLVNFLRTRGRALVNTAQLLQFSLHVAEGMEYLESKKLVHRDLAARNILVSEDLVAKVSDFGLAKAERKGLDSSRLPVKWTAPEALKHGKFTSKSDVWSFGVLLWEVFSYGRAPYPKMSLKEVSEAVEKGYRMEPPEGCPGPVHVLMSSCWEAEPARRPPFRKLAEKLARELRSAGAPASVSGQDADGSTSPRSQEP

[13] = target: Tyrosine-protein kinase receptor Tie-1 (Homo sapiens) (UniProt P35590); assay: Selectivity interaction (KinomeScan (DiscoverX)) EUB0000607a TIE1; settings: at 10 µM
Chain of Tyrosine-protein kinase receptor Tie-1 (Homo sapiens) (P35590 whole entry): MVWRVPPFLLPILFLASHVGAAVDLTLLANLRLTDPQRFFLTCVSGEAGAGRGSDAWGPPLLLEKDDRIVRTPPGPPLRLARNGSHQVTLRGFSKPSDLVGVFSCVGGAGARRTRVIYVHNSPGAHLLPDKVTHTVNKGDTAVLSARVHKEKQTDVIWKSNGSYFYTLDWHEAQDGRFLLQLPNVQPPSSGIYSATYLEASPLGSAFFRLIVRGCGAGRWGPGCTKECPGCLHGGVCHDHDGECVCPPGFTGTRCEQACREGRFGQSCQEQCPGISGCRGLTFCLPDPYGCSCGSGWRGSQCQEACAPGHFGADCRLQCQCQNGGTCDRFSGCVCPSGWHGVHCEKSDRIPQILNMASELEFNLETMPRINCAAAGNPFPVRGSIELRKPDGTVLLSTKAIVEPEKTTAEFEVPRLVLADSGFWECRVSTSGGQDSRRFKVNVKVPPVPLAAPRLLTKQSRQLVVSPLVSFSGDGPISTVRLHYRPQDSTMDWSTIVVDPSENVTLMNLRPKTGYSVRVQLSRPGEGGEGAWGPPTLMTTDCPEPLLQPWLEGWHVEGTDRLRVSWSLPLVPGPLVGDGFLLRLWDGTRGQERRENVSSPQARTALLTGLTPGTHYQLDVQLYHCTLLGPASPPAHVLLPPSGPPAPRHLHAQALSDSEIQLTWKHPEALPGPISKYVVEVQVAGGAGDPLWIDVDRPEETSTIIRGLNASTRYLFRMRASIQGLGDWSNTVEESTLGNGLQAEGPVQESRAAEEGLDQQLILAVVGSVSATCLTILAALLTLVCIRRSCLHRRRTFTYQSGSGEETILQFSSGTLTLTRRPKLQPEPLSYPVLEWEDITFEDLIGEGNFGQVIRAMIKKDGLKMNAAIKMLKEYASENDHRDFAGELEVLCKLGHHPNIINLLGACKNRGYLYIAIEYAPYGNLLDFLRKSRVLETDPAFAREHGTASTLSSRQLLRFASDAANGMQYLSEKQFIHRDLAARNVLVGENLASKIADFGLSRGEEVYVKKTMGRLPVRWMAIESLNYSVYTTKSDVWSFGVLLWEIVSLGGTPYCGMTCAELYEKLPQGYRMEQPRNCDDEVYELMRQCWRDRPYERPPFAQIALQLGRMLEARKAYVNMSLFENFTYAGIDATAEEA

Chain of Glycogen synthase kinase-3 alpha (P49840 2-483 limits assumed): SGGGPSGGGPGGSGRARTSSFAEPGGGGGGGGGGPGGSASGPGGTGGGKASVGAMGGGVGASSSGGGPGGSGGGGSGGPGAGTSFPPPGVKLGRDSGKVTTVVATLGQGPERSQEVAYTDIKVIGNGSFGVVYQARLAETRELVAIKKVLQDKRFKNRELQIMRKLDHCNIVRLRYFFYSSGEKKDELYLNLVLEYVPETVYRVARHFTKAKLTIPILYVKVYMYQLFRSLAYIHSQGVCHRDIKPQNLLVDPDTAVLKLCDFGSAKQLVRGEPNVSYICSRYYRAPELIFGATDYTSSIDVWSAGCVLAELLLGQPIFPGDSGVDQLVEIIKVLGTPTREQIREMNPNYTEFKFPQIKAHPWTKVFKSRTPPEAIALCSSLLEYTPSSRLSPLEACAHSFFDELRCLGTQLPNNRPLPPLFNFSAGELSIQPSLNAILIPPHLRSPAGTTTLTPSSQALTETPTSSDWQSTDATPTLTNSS
Chain of Epidermal growth factor receptor (Homo sapiens), P00533 [UNDEFINED MUTATION] (P00533 whole entry, looked up, stated change not applied): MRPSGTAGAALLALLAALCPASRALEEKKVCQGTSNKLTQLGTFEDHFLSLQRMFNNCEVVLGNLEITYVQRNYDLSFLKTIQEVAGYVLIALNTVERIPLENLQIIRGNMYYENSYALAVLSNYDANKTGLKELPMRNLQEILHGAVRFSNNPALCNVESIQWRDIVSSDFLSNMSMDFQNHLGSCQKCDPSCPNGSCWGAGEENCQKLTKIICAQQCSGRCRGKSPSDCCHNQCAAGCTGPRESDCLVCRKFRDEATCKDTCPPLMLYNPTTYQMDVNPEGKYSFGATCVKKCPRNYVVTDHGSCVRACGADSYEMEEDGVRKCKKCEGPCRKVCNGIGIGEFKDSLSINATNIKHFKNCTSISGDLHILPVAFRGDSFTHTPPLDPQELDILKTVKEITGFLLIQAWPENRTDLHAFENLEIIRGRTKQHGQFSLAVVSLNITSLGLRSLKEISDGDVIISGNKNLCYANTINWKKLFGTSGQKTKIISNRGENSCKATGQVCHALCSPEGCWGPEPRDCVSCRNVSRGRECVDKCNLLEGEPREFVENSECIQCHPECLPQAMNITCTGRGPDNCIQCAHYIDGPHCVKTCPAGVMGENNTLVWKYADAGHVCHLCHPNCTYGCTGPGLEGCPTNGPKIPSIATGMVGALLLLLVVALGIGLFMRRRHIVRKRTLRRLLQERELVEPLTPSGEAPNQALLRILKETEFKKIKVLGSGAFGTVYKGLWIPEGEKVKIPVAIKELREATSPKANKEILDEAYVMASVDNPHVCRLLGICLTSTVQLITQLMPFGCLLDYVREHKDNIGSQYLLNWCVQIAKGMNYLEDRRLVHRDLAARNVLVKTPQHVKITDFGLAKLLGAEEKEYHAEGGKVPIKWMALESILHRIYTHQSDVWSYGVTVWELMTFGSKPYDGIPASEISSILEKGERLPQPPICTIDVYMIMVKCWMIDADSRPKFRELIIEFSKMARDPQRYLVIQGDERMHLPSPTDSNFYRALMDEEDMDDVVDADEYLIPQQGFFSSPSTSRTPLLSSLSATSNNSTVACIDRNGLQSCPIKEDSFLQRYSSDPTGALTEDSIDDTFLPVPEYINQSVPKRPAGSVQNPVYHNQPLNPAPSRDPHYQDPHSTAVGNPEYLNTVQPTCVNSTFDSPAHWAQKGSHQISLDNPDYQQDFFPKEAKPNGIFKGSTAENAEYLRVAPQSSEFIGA
Chain of Epidermal growth factor receptor (Homo sapiens), P00533 [L861Q] (P00533 whole entry L861Q): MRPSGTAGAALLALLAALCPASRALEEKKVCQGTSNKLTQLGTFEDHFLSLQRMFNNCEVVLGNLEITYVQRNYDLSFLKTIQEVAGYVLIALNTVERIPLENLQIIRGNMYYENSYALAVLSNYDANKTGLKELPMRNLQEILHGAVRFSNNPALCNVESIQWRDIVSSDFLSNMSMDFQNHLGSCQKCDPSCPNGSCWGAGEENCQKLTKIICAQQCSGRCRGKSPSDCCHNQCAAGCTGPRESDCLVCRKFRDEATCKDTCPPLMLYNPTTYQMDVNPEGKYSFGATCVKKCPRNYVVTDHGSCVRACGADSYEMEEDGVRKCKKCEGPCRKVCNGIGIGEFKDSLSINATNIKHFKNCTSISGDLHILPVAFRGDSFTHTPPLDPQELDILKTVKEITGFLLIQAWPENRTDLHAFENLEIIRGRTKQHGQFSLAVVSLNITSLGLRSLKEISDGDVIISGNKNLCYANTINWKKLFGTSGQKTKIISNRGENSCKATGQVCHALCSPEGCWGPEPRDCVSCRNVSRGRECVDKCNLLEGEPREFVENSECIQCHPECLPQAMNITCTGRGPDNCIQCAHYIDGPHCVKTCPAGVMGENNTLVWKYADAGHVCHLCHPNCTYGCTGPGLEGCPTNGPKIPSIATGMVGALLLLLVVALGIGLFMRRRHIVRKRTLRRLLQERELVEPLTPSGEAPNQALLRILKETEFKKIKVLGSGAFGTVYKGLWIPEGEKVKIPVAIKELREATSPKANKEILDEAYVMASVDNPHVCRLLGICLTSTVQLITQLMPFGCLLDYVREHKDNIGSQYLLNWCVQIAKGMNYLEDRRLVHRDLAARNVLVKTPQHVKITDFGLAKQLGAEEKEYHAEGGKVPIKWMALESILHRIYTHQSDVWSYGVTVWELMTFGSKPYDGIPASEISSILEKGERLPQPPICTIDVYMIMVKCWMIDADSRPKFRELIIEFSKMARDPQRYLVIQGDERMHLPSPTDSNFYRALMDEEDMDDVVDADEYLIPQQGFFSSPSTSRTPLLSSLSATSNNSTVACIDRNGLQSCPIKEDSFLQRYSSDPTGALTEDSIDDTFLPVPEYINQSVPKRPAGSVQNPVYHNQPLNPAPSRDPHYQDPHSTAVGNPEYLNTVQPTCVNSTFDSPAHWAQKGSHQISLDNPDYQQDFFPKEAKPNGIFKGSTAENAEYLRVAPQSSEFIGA
Chain of MAP kinase-activated protein kinase 2 (P49137 whole entry, looked up): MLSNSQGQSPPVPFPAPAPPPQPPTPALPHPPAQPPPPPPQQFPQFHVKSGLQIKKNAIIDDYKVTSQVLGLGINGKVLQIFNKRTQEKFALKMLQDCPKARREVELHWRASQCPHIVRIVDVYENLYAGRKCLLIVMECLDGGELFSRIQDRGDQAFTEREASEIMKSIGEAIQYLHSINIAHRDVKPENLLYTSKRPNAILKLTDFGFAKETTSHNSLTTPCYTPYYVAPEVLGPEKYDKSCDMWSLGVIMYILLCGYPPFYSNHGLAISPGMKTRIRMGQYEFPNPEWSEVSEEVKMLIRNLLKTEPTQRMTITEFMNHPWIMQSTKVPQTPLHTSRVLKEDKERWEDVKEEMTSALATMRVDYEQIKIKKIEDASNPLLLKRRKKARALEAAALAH

## COc1cc(Nc2nc(C)cc(-c3cnn4nc(OC)ccc34)n2)cc(C(F)(F)F)c1
[1]
  % of control: 100%

## CCc1cc(Nc2nccc(-c3c(-c4ccc(OC)c(C(=O)Nc5c(F)cccc5F)c4)nc4ccccn34)n2)c(OC)cc1N1CCC(N2CCN(S(C)(=O)=O)CC2)CC1
[2]
  % of inhibition: 35%

## COc1cc(N(C)c2ccnc3ccc(C(F)(F)F)cc23)cc(OC)c1OC
[3]
  % binding: 93%

## CC[C@@H]1[C@H](F)C(=O)N[C@@H]1COc1nccc2cc(C(N)=O)c(OC)cc12 [ZIMLOVISERTIB]
[4]; at 0.01 µM
  % of inhibition: -6%
[4]; at 0.04 µM
  % of inhibition: -6.7%
[4]; at 0.2 µM
  % of inhibition: -1.9%
[4]; at 1 µM
  % of inhibition: 8.1%
[4]; at 5 µM
  % of inhibition: 18.5%

## COCC(=O)NC/C=C/c1ccc2ncnc(Nc3ccc(Oc4ccc(C)nc4)c(C)c3)c2c1 [CP-724714]
[5]
  % of control: 86%

## CCC(=O)N1CCN(c2ccc(-n3c(=O)ccc4cnc5ccc(-c6cnc7ccccc7c6)cc5c43)cc2C(F)(F)F)CC1
[6]
  % of control: 94%

## CN(C)CCOc1ccc(-c2nc(-c3ccncc3)c(-c3ccc4c(c3)CC/C4=N\O)[nH]2)cc1
[7]
  % of control: 54%
[8]
  % of control: 34%
[9]
  % of control: 100%
[10]
  % of control: 54%

## Cc1cc(F)c(C(=O)Nc2cccc(-c3nncn3C(C)C)n2)cc1-n1cnc(C2CC2)c1
[11]
  % of control: 88%

## CNC(=O)Nc1ccc(-c2nc(N3CC4CCC(C3)O4)c3cnn(C4CCC5(CC4)OCCO5)c3n2)cc1
[12]
  % of inhibition: 2%
[13]
  % of control: 98%
